Measurements as given in patent publication US8697151B2, “Use of an extract from the vigna aconitifolia plant in a cosmetic and/or dermopharmaceutical composition” (BASF Beauty Care Solutions France S.A.S., priority 2001, dated 2014).

System: epidermal cell renewal
Test: Epidermal cell renewal in vivo by the dihydroxyacetone test (DHA test)
Set-up: species or system human
Settings: for Development of luminescence (D15-D9) / Luminescence (AU) at D 15: 12 volunteers; for Luminescence (AU) at D 15: D15, 6 days after removal of the plasters, 3 mg/cm^2 daily; for Development of luminescence (D15-D9) % referring to control area: Wilcoxon T Test not significant
Experimental: Comparative in vivo tests were conducted to determine the accelerated epidermal cell renewal activity using 5 emulsions containing 0.2% by weight or 0.5% by weight vitamin A palmitate, 3% by weight or 5% by weight VITOPTINE® (extract of Vigna aconitifolia, Lab. Sero., Pulnoy) versus placebo.
Phase A and phase B were heated to 75° C. The aqueous phase was added to the fatty phase with continuous stirring and cooled to 60° C. by continued stirring. The combined phases were then homogenized for 2 mins. with an Ultraturrax. Finally, the active component is added with stirring and the whole is cooled to room temperature.
The study was carried out as a double blind study involving 12 female volunteers aged between 18 and 55 years.
The measurement parameter was the intensity of tanning of the skin after pigmenting with dihydroxyacetone. The decreasing tanning intensity corresponds to an increase in the renewal of the stratum corneum and the rate of the epidermal cell renewal cycle.
Eight areas (two groups of four) on the inside of the lower forearm were selected: • control area untreated and unpigmented by DHA, • area treated with placebo cream, • area treated with cream containing vitamin A palmitate • area treated with cream containing VITOPTINE®.
A standardized and randomized pretreatment with 3 mg/cm^2 of a preparation was carried out daily for 7 days. After the pretreatment, on day 8, DHA in the form of a face and body tanning lotion containing 5% by weight DHA was applied to the control and treated areas by an occlusive standardized process. On day 9, the occlusive plasters were removed. This was followed for another 6 days (days 10 to 15) by the same treatment as on days 1 to 7. The color intensity of the skin was determined immediately after removal of the plasters and 6 days later by colorimetric measurements (Minolta chromameter) via luminescence.
The first calculation (D15-D9) allowed evaluation of the development between day 9 (removal of the occlusive plasters) and day 15 (6 days after removal of the occlusive plasters). This development is representative of the epidermal cell renewal cycle. The greater the value, the higher the epidermal cell renewal.

With `CCCCCCCCCCCCCCCC(=O)OC/C=C(C)/C=C/C=C(C)/C=C/C1=C(C)CCCC1(C)C` [vitamin A palmitate] the “Development of luminescence (D15-D9)” value (cream containing 0.2%) was 3.53, the “Luminescence (AU) at D 15” value (cream containing 0.2%) was 62.18 AU and the “Development of luminescence (D15-D9) % referring to control area” value (cream containing 0.2%) was 32 (ns) %. For the same molecule, the “Development of luminescence (D15-D9)” value (cream containing 0.5%) was 3.79, the “Luminescence (AU) at D 15” value (cream containing 0.5%) was 62.44 AU and the “Development of luminescence (D15-D9) % referring to control area” value (cream containing 0.5%) was 41 (ns) %.
